Data: the supplement of paper PMC10307832

Legend:
Test in all cases: relative viability (nuclei count vs DMSO), 5 days (fraction); higher = more cells survive
NCI-H2342 = tested on: NCI-H2342
In short: (§1)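 Relative viability is defined as nuclei in treated wells over nuclei in vehicle wells. Duplicate plates were run and medians reported. Lung cancer cell lines in 1536-well plates were dosed by pin tool one day after seeding, with one drug or with a fixed anchor-drug dose plus five library-drug doses (not always all listed) in √10 steps, and nuclei were counted after 5 days.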

HCC-78 = tested on: HCC-78
In short: as §1

NCI-H1755 = tested on: NCI-H1755
In short: as §1

SK-LU-1 = tested on: SK-LU-1
In short: as §1

UMC-11 = tested on: UMC-11
In short: as §1

HCC-366 = tested on: HCC-366
In short: as §1

LCLC-97TM1 = tested on: LCLC-97TM1
In short: as §1

NCI-H1792 = tested on: NCI-H1792
In short: as §1

NCI-H358 = tested on: NCI-H358
In short: as §1

NCI-H2170 = tested on: NCI-H2170
In short: as §1

NCI-H460 = tested on: NCI-H460
In short: as §1

LXF-289 = tested on: LXF-289
In short: as §1

Clc1ccc(Nc2nnc(Cc3ccncc3)c3ccccc23)cc1 [Vatalanib] + Nc1ncn([C@H]2C[C@H](O)[C@@H](CO)O2)c(=O)n1 [Decitabine] (partner 2 µM)
relative viability (NCI-H2342; first compound 0.04 µM): 0.611
relative viability (NCI-H2342; first compound 0.1265 µM): 0.781
relative viability (NCI-H2342; first compound 0.4 µM): 0.718
relative viability (NCI-H2342; first compound 1.265 µM): 0.736
relative viability (NCI-H2342; first compound 4 µM): 0.641
relative viability (HCC-78; first compound 0.04 µM): 0.744
relative viability (HCC-78; first compound 0.1265 µM): 0.723
relative viability (HCC-78; first compound 0.4 µM): 0.773
relative viability (HCC-78; first compound 1.265 µM): 0.719
relative viability (HCC-78; first compound 4 µM): 0.684
relative viability (NCI-H1755; first compound 0.04 µM): 0.691
relative viability (NCI-H1755; first compound 0.1265 µM): 0.76
relative viability (NCI-H1755; first compound 0.4 µM): 0.745
relative viability (NCI-H1755; first compound 1.265 µM): 0.707
relative viability (NCI-H1755; first compound 4 µM): 0.728
relative viability (SK-LU-1; first compound 0.04 µM): 0.614
relative viability (SK-LU-1; first compound 0.1265 µM): 0.584
relative viability (SK-LU-1; first compound 0.4 µM): 0.668
relative viability (SK-LU-1; first compound 1.265 µM): 0.668
relative viability (SK-LU-1; first compound 4 µM): 0.52
relative viability (UMC-11; first compound 0.04 µM): 1.08
relative viability (UMC-11; first compound 0.1265 µM): 0.624
relative viability (UMC-11; first compound 0.4 µM): 0.462
relative viability (UMC-11; first compound 1.265 µM): 0.563
relative viability (UMC-11; first compound 4 µM): 0.619
relative viability (HCC-366; first compound 0.04 µM): 0.328
relative viability (HCC-366; first compound 0.1265 µM): 0.271
relative viability (HCC-366; first compound 0.4 µM): 0.395
relative viability (HCC-366; first compound 1.265 µM): 0.312
relative viability (HCC-366; first compound 4 µM): 0.348
relative viability (LCLC-97TM1; first compound 0.04 µM): 0.237
relative viability (LCLC-97TM1; first compound 0.1265 µM): 0.19
relative viability (LCLC-97TM1; first compound 0.4 µM): 0.25
relative viability (LCLC-97TM1; first compound 1.265 µM): 0.224
relative viability (LCLC-97TM1; first compound 4 µM): 0.232
relative viability (NCI-H1792; first compound 0.04 µM): 0.614
relative viability (NCI-H1792; first compound 0.1265 µM): 0.465
relative viability (NCI-H1792; first compound 0.4 µM): 0.608
relative viability (NCI-H1792; first compound 1.265 µM): 0.515
relative viability (NCI-H1792; first compound 4 µM): 0.55
relative viability (NCI-H358; first compound 0.04 µM): 0.23
relative viability (NCI-H358; first compound 0.1265 µM): 0.204
relative viability (NCI-H358; first compound 0.4 µM): 0.246
relative viability (NCI-H358; first compound 1.265 µM): 0.21
relative viability (NCI-H358; first compound 4 µM): 0.234
relative viability (NCI-H2170; first compound 0.04 µM): 0.479
relative viability (NCI-H2170; first compound 0.1265 µM): 0.474
relative viability (NCI-H2170; first compound 0.4 µM): 0.488
relative viability (NCI-H2170; first compound 1.265 µM): 0.469
relative viability (NCI-H2170; first compound 4 µM): 0.487
relative viability (NCI-H460; first compound 0.04 µM): 0.502
relative viability (NCI-H460; first compound 0.1265 µM): 0.481
relative viability (NCI-H460; first compound 0.4 µM): 0.482
relative viability (NCI-H460; first compound 1.265 µM): 0.47
relative viability (NCI-H460; first compound 4 µM): 0.495
relative viability (LXF-289; first compound 0.04 µM): 0.368
relative viability (LXF-289; first compound 0.1265 µM): 0.38
relative viability (LXF-289; first compound 0.4 µM): 0.445
relative viability (LXF-289; first compound 1.265 µM): 0.361
